Measurements from PubChem BioAssay AID2060494 (Molecular Pharmacology Branch, DTP, NCI, 2025).

Test system: 435261-313-R-J1-PDC complex spheroid viability
Experiment: Anticancer human tumor 435261-313-R-J1-PDC patient-derived colon adenocarcinoma cell line growth inhibition [GQUAD]
Conditions: for IC50: curve of first compound; for viability, T/C: stronger effect = lower value; active = viability on the fitted dose curve at most 10% of control; inactive = the rest
In short: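 Multi-cell-type spheroids of tumor cells with HUVEC and mesenchymal stem cells, treated with drug combinations. Concentrations descend in half-log steps from near clinical Cmax, or from 10 microM where Cmax is unknown; viability read-out.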

[1] = second compound 0.0316 µM, first compound 0.0316 µM
[2] = second compound 0.0316 µM, first compound 0.1 µM
[3] = second compound 0.0316 µM, first compound 0.316 µM
[4] = second compound 0.0316 µM, first compound 1 µM
[5] = second compound 0.0316 µM, first compound 3.16 µM
[6] = second compound 0.0316 µM, first compound 10 µM
[7] = second compound 0.1 µM, first compound 0.0316 µM
[8] = second compound 0.1 µM, first compound 0.1 µM
[9] = second compound 0.1 µM, first compound 0.316 µM
[10] = second compound 0.1 µM, first compound 1 µM
[11] = second compound 0.1 µM, first compound 3.16 µM
[12] = second compound 0.1 µM, first compound 10 µM
[13] = second compound 0.316 µM, first compound 0.0316 µM
[14] = second compound 0.316 µM, first compound 0.1 µM
[15] = second compound 0.316 µM, first compound 0.316 µM
[16] = second compound 0.316 µM, first compound 1 µM
[17] = second compound 0.316 µM, first compound 3.16 µM
[18] = second compound 0.316 µM, first compound 10 µM
[19] = second compound 1 µM, first compound 0.0316 µM
[20] = second compound 1 µM, first compound 0.1 µM
[21] = second compound 1 µM, first compound 0.316 µM
[22] = second compound 1 µM, first compound 1 µM
[23] = second compound 1 µM, first compound 3.16 µM
[24] = second compound 1 µM, first compound 10 µM
[25] = second compound 3.16 µM, first compound 0.0316 µM
[26] = second compound 3.16 µM, first compound 0.1 µM
[27] = second compound 3.16 µM, first compound 0.316 µM
[28] = second compound 3.16 µM, first compound 1 µM
[29] = second compound 3.16 µM, first compound 3.16 µM
[30] = second compound 3.16 µM, first compound 10 µM
[31] = second compound 10 µM, first compound 0.0316 µM
[32] = second compound 10 µM, first compound 0.1 µM
[33] = second compound 10 µM, first compound 0.316 µM
[34] = second compound 10 µM, first compound 1 µM
[35] = second compound 10 µM, first compound 3.16 µM
[36] = second compound 10 µM, first compound 10 µM
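Note: spheroids exposed to the agents for seven days before readout.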
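Throughout, for viability, T/C: percent of vehicle control viability with DMSO wells as 100%.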

C=CC(=O)N1CCN(c2nc(=O)n(-c3c(C)ccnc3C(C)C)c3nc(-c4c(O)cccc4F)c(F)cc23)C(C)C1 (stereo unspecified) + CN(C)c1ccc(Nc2c3ccc(NC(=O)CCN4CCCC4)cc3nc3cc(NC(=O)CCN4CCCC4)ccc23)cc1
> 10 µM: IC50 (second compound 0.0316 µM) | IC50 (second compound 0.1 µM) | IC50 (second compound 0.316 µM) | IC50 (second compound 1 µM) | IC50 (second compound 3.16 µM)
< 0.0316 µM: IC50 (second compound 10 µM)
inactive: viability, T/C [1] 98.5% | viability, T/C [2] 146% | viability, T/C [3] 119% | viability, T/C [4] 97.6% | viability, T/C [5] 100% | viability, T/C [6] 105% | viability, T/C [7] 111% | viability, T/C [8] 109% | viability, T/C [9] 111% | viability, T/C [10] 138% | viability, T/C [11] 115% | viability, T/C [12] 173% | viability, T/C [13] 159% | viability, T/C [14] 106% | viability, T/C [15] 123% | viability, T/C [16] 120% | viability, T/C [17] 111% | viability, T/C [18] 103% | viability, T/C [19] 122% | viability, T/C [20] 101% | viability, T/C [21] 149% | viability, T/C [22] 99.8% | viability, T/C [23] 145% | viability, T/C [24] 109% | viability, T/C [25] 69.4% | viability, T/C [26] 98.3% | viability, T/C [27] 114% | viability, T/C [28] 113% | viability, T/C [29] 102% | viability, T/C [30] 87.1% | viability, T/C [31] 30.8% | viability, T/C [32] 45.6% | viability, T/C [33] 54% | viability, T/C [34] 71.5% | viability, T/C [35] 70.9% | viability, T/C [36] 30.2%

CC[C@@]1(O)C(=O)OCc2c1cc1n(c2=O)Cc2cc3c(CN(C)C)c(O)ccc3nc2-1 + CN(C)c1ccc(Nc2c3ccc(NC(=O)CCN4CCCC4)cc3nc3cc(NC(=O)CCN4CCCC4)ccc23)cc1
< 0.000999 µM: IC50 (second compound 10 µM)
> 0.316 µM: IC50 (second compound 0.0316 µM) | IC50 (second compound 0.1 µM) | IC50 (second compound 0.316 µM) | IC50 (second compound 1 µM)
0.0725 µM: IC50 (second compound 3.16 µM)
inactive: viability, T/C (second compound 0.0316 µM, first compound 0.000999 µM) 110% | viability, T/C (second compound 0.0316 µM, first compound 0.00316 µM) 96.6% | viability, T/C (second compound 0.0316 µM, first compound 0.00999 µM) 116% | viability, T/C [1] 87.2% | viability, T/C (second compound 0.0316 µM, first compound 0.0999 µM) 67.5% | viability, T/C [3] 88.7% | viability, T/C (second compound 0.1 µM, first compound 0.000999 µM) 119% | viability, T/C (second compound 0.1 µM, first compound 0.00316 µM) 111% | viability, T/C (second compound 0.1 µM, first compound 0.00999 µM) 101% | viability, T/C [7] 84.6% | viability, T/C (second compound 0.1 µM, first compound 0.0999 µM) 76.1% | viability, T/C [9] 77.2% | viability, T/C (second compound 0.316 µM, first compound 0.000999 µM) 108% | viability, T/C (second compound 0.316 µM, first compound 0.00316 µM) 99.6% | viability, T/C (second compound 0.316 µM, first compound 0.00999 µM) 87.5% | viability, T/C [13] 64.2% | viability, T/C (second compound 0.316 µM, first compound 0.0999 µM) 73.7% | viability, T/C [15] 74.2% | viability, T/C (second compound 1 µM, first compound 0.000999 µM) 88.4% | viability, T/C (second compound 1 µM, first compound 0.00316 µM) 99.3% | viability, T/C (second compound 1 µM, first compound 0.00999 µM) 87.8% | viability, T/C [19] 81.5% | viability, T/C (second compound 1 µM, first compound 0.0999 µM) 82.3% | viability, T/C [21] 84.1% | viability, T/C (second compound 3.16 µM, first compound 0.000999 µM) 75.2% | viability, T/C (second compound 3.16 µM, first compound 0.00316 µM) 62.8% | viability, T/C (second compound 3.16 µM, first compound 0.00999 µM) 78.6% | viability, T/C [25] 63.4% | viability, T/C (second compound 3.16 µM, first compound 0.0999 µM) 45.3% | viability, T/C [27] 44.3% | viability, T/C (second compound 10 µM, first compound 0.000999 µM) 39.9% | viability, T/C (second compound 10 µM, first compound 0.00316 µM) 40.5% | viability, T/C (second compound 10 µM, first compound 0.00999 µM) 33.6% | viability, T/C [31] 36.5% | viability, T/C (second compound 10 µM, first compound 0.0999 µM) 29.8% | viability, T/C [33] 22%

COc1cc(C2c3cc4c(cc3C(OC3OC5COC(C)OC5C(O)C3O)C3COC(=O)C23)OCO4)cc(OC)c1O (stereo unspecified) + CN(C)c1ccc(Nc2c3ccc(NC(=O)CCN4CCCC4)cc3nc3cc(NC(=O)CCN4CCCC4)ccc23)cc1
> 10 µM: IC50 (second compound 0.0316 µM) | IC50 (second compound 0.1 µM) | IC50 (second compound 0.316 µM) | IC50 (second compound 1 µM) | IC50 (second compound 3.16 µM)
inactive: viability, T/C [1] 93.5% | viability, T/C [2] 117% | viability, T/C [3] 77.8% | viability, T/C [4] 74.4% | viability, T/C [5] 75.9% | viability, T/C [6] 61.2% | viability, T/C [7] 81.8% | viability, T/C [8] 87.3% | viability, T/C [9] 74.8% | viability, T/C [10] 80.7% | viability, T/C [11] 82.1% | viability, T/C [12] 74.1% | viability, T/C [13] 100% | viability, T/C [14] 95.2% | viability, T/C [15] 65.1% | viability, T/C [16] 71% | viability, T/C [17] 91.6% | viability, T/C [18] 74.4% | viability, T/C [19] 78.9% | viability, T/C [20] 91.4% | viability, T/C [21] 74.3% | viability, T/C [22] 76.4% | viability, T/C [23] 71.1% | viability, T/C [24] 57.1% | viability, T/C [25] 62.6% | viability, T/C [26] 69.2% | viability, T/C [27] 65.5% | viability, T/C [28] 55.2% | viability, T/C [29] 62.4% | viability, T/C [30] 45.7% | viability, T/C [31] 63% | viability, T/C [32] 42.4% | viability, T/C [33] 37.9% | viability, T/C [34] 29% | viability, T/C [35] 27.1% | viability, T/C [36] 26.4%
0.0704 µM: IC50 (second compound 10 µM)
